For one test, the target named is BRD4-BD1 (Homo sapiens (Human), UniProt O60885). Kind of test: BRD4 AlphaScreen assay, BRD4-BD1. It counts as binding. The note with it: biotin-labeled tetra-acetylated histone H4 peptide, 75 min, room temperature, read-out: BRD4 BD-1 enzyme IC50. The method, boiled down:
(§1)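 Displacement of 50 nM biotinylated tetra-acetylated H4 peptide (H4Ac4) from BRD4-BD1 (3.8 nM) or BRD4-BD2 (20 nM) in HEPES pH 7.4, 100 mM NaCl, CHAPS, BSA; 75 min at room temperature. Streptavidin donor/GSH acceptor beads were added for a further 75 min in the dark; IC50 from percent control activity versus log concentration.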
(Alpha assays give light when donor and acceptor beads are brought close together.)

The next test deals with BRD4-BD2 (Homo sapiens (Human), UniProt O60885). Kind of test: BRD4 AlphaScreen assay, BRD4-BD2. It counts as binding. The settings on record: biotin-labeled tetra-acetylated histone H4 peptide, 75 min, room temperature, read-out: BRD4 BD-2 enzyme IC50. The method, boiled down: as §1

Molecules are shown by their SMILES.

By IC50 is commonly meant the concentration at which inhibition is half-maximal. For the compound `Cc1cc2c(cc(NC(N)=O)c3nnc(C)n32)n1Cc1cc(F)cc(F)c1` [Example 233, 1-(6-(3,5-Difluorobenzyl)-1,7-dimethyl-6H-pyrrolo[2,3-e][1,2,4]triazolo[4,3-a]pyridin-4-yl)urea], the IC50 at BRD4-BD1 and on BRD4-BD2 was at most 100 nM in each case.
Regarding `Cc1cc2c(cc(NC(N)=O)c3nnc(C)n32)n1Cc1ccc(F)c(F)c1` [Example 234, 1-(6-(3,4-Difluorobenzyl)-1,7-dimethyl-6H-pyrrolo[2,3-e][1,2,4]triazolo[4,3-a]pyridin-4-yl)urea], the IC50 on BRD4-BD1 and at BRD4-BD2 was at most 100 nM in each case.
For `Cc1cc2c(cc(NC(N)=O)c3nnc(C)n32)n1Cc1cccc(F)c1` [Example 235, 1-(6-(3-Fluorobenzyl)-1,7-dimethyl-6H-pyrrolo[2,3-e][1,2,4]triazolo[4,3-a]pyridin-4-yl)urea], the IC50 on BRD4-BD1 and on BRD4-BD2 was at most 100 nM in each case.
For `Cc1cc2c(cc(NC(N)=O)c3nnc(C)n32)n1Cc1ccc(F)cc1F` [Example 236, 1-(6-(2,4-Difluorobenzyl)-1,7-dimethyl-6H-pyrrolo[2,3-e][1,2,4]triazolo[4,3-a]pyridin-4-yl)urea], the IC50 on BRD4-BD1 and at BRD4-BD2 was at most 100 nM each time.
Turning to `Cc1cc2c(cc(NC(N)=O)c3nnc(C)n32)n1Cc1cccc(F)c1F` [Example 237, 1-(6-(2,3-Difluorobenzyl)-1,7-dimethyl-6H-pyrrolo[2,3-e][1,2,4]triazolo[4,3-a]pyridin-4-yl)urea], the IC50 at BRD4-BD1 and on BRD4-BD2 was at most 100 nM in each case.
As for `Cc1cc2c(cc(NC(N)=O)c3nnc(C)n32)n1Cc1ccccc1F` [Example 238, 1-(6-(2-Fluorobenzyl)-1,7-dimethyl-6H-pyrrolo[2,3-e][1,2,4]triazolo[4,3-a]pyridin-4-yl)urea], the IC50 on BRD4-BD1 and on BRD4-BD2 was at most 100 nM each time.
With `Cc1cc2c(cc(NC(N)=O)c3nnc(C)n32)n1Cc1ccc(F)cc1` [Example 239, 1-(6-(4-Fluorobenzyl)-1,7-dimethyl-6H-pyrrolo[2,3-e][1,2,4]triazolo[4,3-a]pyridin-4-yl)urea], the IC50 at BRD4-BD1 and at BRD4-BD2 was at most 100 nM throughout.
In the case of `Cc1cc2c(cc(Nc3ccccn3)c3nnc(C)n32)n1Cc1ccccc1` [Example 240, 6-benzyl-1,7-Dimethyl-N-(pyridin-2-yl)-6H-pyrrolo[2,3-e][1,2,4]triazolo[4,3-a]pyridin-4-amine], the IC50 on BRD4-BD1 and at BRD4-BD2 was at most 100 nM in each case.
As for `Cc1cc2c(cc(NCC3CCC3)c3nnc(C)n32)n1Cc1ccccc1` [Example 241, 6-Benzyl-N-(cyclobutylmethyl)-1,7-dimethyl-6H-pyrrolo[2,3-e][1,2,4]triazolo[4,3-a]pyridin-4-amine], the IC50 at BRD4-BD1 was 100 to 1000 nM; on BRD4-BD2, at most 100 nM.
As for `Cc1cc2c(cc(NCC3CCN(C(=O)OC(C)(C)C)CC3)c3nnc(C)n32)n1Cc1ccccc1` [Example 242, tert-Butyl 4-((6-benzyl-1,7-dimethyl-6H-pyrrolo[2,3-e][1,2,4]triazolo[4,3-a]pyridin-4-ylamino)methyl)piperidine-1-carboxylate], the IC50 at BRD4-BD1 is 100 to 1000 nM; at BRD4-BD2 it was at most 100 nM.
For `Cc1cc2c(cc(NCC3CN(C(=O)OC(C)(C)C)C3)c3nnc(C)n32)n1Cc1ccccc1` [Example 243, tert-Butyl 3-((6-benzyl-1,7-dimethyl-6H-pyrrolo[2,3-e][1,2,4]triazolo[4,3-a]pyridin-4-ylamino)methyl)azetidine-1-carboxylate] the same measures were 100 to 1000 nM and at most 100 nM.
With `Cc1cc2c(cc(NC3CN(C(=O)OC(C)(C)C)C3)c3nnc(C)n32)n1Cc1ccccc1` [Example 244, tert-Butyl 3-(6-benzyl-1,7-dimethyl-6H-pyrrolo[2,3-e][1,2,4]triazolo[4,3-a]pyridin-4-ylamino)azetidine-1-carboxylate], the IC50 on BRD4-BD1 and at BRD4-BD2 was at most 100 nM throughout.

(Values after patent US9777003B2, “Tricyclic heterocycles as bet protein inhibitors” (Incyte Corporation, priority 2013, dated 2017).)
